Target: T1, TRAP1 enzyme (Homo sapiens, UniProt Q12931)
T1 sequence (Q12931 60-704): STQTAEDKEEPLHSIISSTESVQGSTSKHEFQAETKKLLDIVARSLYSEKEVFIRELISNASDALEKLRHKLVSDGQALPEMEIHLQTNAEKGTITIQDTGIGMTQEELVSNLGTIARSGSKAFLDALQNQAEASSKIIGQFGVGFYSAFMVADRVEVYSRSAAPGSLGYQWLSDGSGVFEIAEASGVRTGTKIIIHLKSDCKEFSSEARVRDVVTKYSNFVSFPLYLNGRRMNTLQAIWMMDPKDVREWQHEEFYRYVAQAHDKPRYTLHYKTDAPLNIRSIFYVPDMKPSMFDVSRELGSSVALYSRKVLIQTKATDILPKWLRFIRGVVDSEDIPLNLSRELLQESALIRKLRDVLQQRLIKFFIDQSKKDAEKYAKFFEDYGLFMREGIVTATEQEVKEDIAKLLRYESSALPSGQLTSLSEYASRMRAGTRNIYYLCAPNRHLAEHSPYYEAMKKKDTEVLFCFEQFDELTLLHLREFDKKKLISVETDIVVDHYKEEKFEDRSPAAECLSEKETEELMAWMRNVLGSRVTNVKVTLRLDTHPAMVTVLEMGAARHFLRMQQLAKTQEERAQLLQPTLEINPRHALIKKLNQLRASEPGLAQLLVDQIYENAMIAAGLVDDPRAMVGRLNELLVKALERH
Experiment: ADP Glo assay (ATPase activity of TRAP1)
Type: biochemical
Settings: for EC50: 150 nM Trap1, 20 µM ATP, concentration for half maximal activation, read-out: ADP GLO DRC: GeoMean EC50; for Emax: maximal percent activation, read-out: ADP GLO DRC: Mean Emax
Experimental: Potency of test compounds to modulate the ATPase activity of TRAP1 enzyme was evaluated using ADP Glo assay. The assay is based on quantification of the ADP generated from ATP in the ATPase reaction. The assay is performed in two steps; first, after the ATPase reaction, an equal volume of ADP-Glo™ Reagent is added to terminate the ATPase reaction and deplete the remaining ATP. Second, the Kinase Detection Reagent is added to simultaneously convert ADP to ATP and allow the newly synthesized ATP to be measured using a luciferase/luciferin reaction.
All the assays were carried out in a 384-well Proxiplate. The buffer used was 25 mM Pipes pH-7.5, 40 mM KCl, 0.05 mM MgCl2, 0.025 % BSA, 0.316 mM EGTA, 0.003% Empigen, 0.01% Igepal. 150 nM Trap1 enzyme was incubated with various concentrations of the test compound (0.79 µM - 100 µM) at 37° C. for 30 mins (except in blank wells). 20 µM ATP was added to each well to start the reaction. The plate was spun for 1 min at 1200 rpm and then incubated at 37° C. for 60 mins. 5 µl of ADP Glo reagent was added to all the wells and spun the plate for 1 min at 1200 rpm and kept it on a shaker at ambient temperature for 60 mins. 10 µl of kinase detection mix was added to all the wells and the plate was read for Luminescence at 495 nm. The amount of ADP released was estimated from ATP/ADP standard curve generated at the same experimental conditions. Emax (Maximal percent activation) and EC50 (concentration for half maximal activation ) were estimated by fitting the dose response data to a sigmoidal curve fitting equation using Graphpad Prism software V. 8.

| EC50 [µM] | Emax [%] | Structure (SMILES) |
| --- | --- | --- |
| 20 to 30 | 150 to 200 | Cc1nc(C(=O)Nc2ccc3c(c2)S(=O)(=O)N(c2ccc(C(F)(F)F)cc2)CCO3)co1 [Compound 1992, N-(1,1-Dioxido-2-(4-(trifluoromethyl)Phenyl)-3,4-Dihydro-2H-Benzo[b][1,4,5]Oxathiazepin-8-yl)-2-Methyloxazole-4-Carboxamide] |
| < 20 | 150 to 200 | COc1cccnc1C(=O)Nc1ccc2c(c1)S(=O)(=O)N(c1ccc(C(F)(F)F)cc1)CCO2 [Compound 2288] |
| 20 to 30 | 129 to 149 | Cn1nc(C(=O)Nc2ccc3c(c2)S(=O)(=O)N(c2ccc(C(F)(F)F)cc2)CCO3)ccc1=O [Compound 2228] |
| 30 to 100 | 150 to 200 | COc1ccc(N2CCOc3ccc(NC(=O)c4ncoc4C)cc3S2(=O)=O)cc1 [Compound 2167, N-(2-(4-methoxyphenyl)-1,1-dioxido-3,4-dihydro-2H-benzo[b][1,4,5]oxathiazepin-8-yl)-5-methyloxazole-4-carboxamide] |
| 30 to 100 | 150 to 200 | Cc1ncn(C)c1C(=O)Nc1ccc2c(c1)S(=O)(=O)N(c1ccc(C(F)(F)F)cc1)CCO2 [Compound 2343] |
| 20 to 30 | 150 to 200 | COc1ccncc1C(=O)Nc1ccc2c(c1)S(=O)(=O)N(c1ccc(C(F)(F)F)cc1)CCO2 [Compound 2323] |
| 20 to 30 | > 200 | Cc1cc(C(=O)Nc2cnc3c(c2)S(=O)(=O)N(c2ccc(C(F)(F)F)cc2)CCO3)cc(C)n1 [Compound 2515] |
| 30 to 100 | > 200 | Cc1ncoc1C(=O)Nc1ccc2c(c1)S(=O)(=O)N(c1ccc(Cl)cc1)CCO2 [Compound 1210, N-(2-(4-chlorophenyl)-1,1-Dioxido-3,4-Dihydro-2H-Benzo[b][1,4,5]Oxathiazepin-8-yl)-4-Methyloxazole-5-Carboxamide] |
| 30 to 100 | 150 to 200 | CN1CCc2scc(C(=O)Nc3ccc4c(c3)S(=O)(=O)N(c3ccc(C(F)(F)F)cc3)CCO4)c2C1 [Compound 2472] |
| 20 to 30 | 150 to 200 | Cn1cc(C(=O)Nc2ccc3c(c2)S(=O)(=O)N(c2ccc(C(F)(F)F)cc2)CCO3)cn1 [Compound 2241] |
| 20 to 30 | 150 to 200 | O=C(Nc1ccc2c(c1)S(=O)(=O)N(c1ccc(C(F)(F)F)cc1)CCO2)c1cnc[nH]1 [Compound 2075, N-(1,1-Dioxido-2-(4-(Trifluoromethyl) Phenyl)-3,4-Dihydro-2H-Benzo [b] [1,4,5] Oxathiazepin-8-yl)-1H-Imidazole-5-Carboxamide] |
| 30 to 100 | 150 to 200 | Cc1nc(C)c(C(=O)Nc2ccc3c(c2)S(=O)(=O)N(c2ccc(C(F)(F)F)cc2)CCO3)s1 [Compound 2248] |
| 20 to 30 | 150 to 200 | O=C(Nc1ccc2c(c1)S(=O)(=O)N(c1ccc(C(F)(F)F)cc1)CCO2)c1c(F)cncc1F [Compound 2198] |
| < 20 | 129 to 149 | O=C(Nc1ccc2c(c1)S(=O)(=O)N(c1ccc(C(F)(F)F)cc1)CCO2)c1cscn1 [Compound 2184] |
| 30 to 100 | > 200 | O=C(Nc1ccc2c(c1)S(=O)(=O)N(c1ccc(C(F)(F)F)cc1)CCO2)c1cnco1 [Compound 1994, n-(1,1-Dioxido-2-(4-(Trifluoromethyl) Phenyl)-3,4-Dihydro-2H-Benzo[b][1,4,5]Oxathiazepin-8-yl)Oxazole-5-Carboxamide] |
| 30 to 100 | > 200 | Cc1ncoc1C(=O)Nc1ccc2c(c1)S(=O)(=O)N(c1ccc(C(F)(F)F)cc1)CCCO2 [Compound 1989, N-(1,1-Dioxido-2-(4-(Trifluoromethyl) Phenyl)-2,3,4,5-Tetrahydrobenzo[b][1,4,5]Oxathiazocin-9-yl)-4-Methyloxazole-5-Carboxamide] |
| 30 to 100 | 150 to 200 | Cc1ccnc(C(=O)Nc2ccc3c(c2)S(=O)(=O)N(c2ccc(C(F)(F)F)cc2)CCO3)n1 [Compound 2261] |
| 30 to 100 | 150 to 200 | O=C(Nc1ccc2c(c1)S(=O)(=O)N(c1ccc(C(F)(F)F)cc1)CCO2)C1CCCN1 (stereo not drawn) [Compound 2410] |
| 20 to 30 | 129 to 149 | O=C(Nc1ccc2c(c1)S(=O)(=O)N(c1ccc(C(F)(F)F)cc1)CCO2)c1cnccc1F [Compound 2264] |
| 20 to 30 | 150 to 200 | CC(C)n1cncc1C(=O)Nc1ccc2c(c1)S(=O)(=O)N(c1ccc(C(F)(F)F)cc1)CCO2 [Compound 2439] |

| EC50 [µM] | Emax [%] | Structure (SMILES) |
| --- | --- | --- |
| < 20 | 129 to 149 | Cc1nscc1C(=O)Nc1ccc2c(c1)S(=O)(=O)N(c1ccc(C(F)(F)F)cc1)CCO2 [Compound 2227] |
| 30 to 100 | 150 to 200 | Cc1ccc(N2CCOc3ccc(NC(=O)c4ncoc4C)cc3S2(=O)=O)cc1 [Compound 2362] |
| 30 to 100 | 129 to 149 | O=C(Nc1ccc2c(c1)S(=O)(=O)N(c1ccc(C(F)(F)F)cc1)CCO2)c1ccccn1 [Compound 2197] |
| 30 to 100 | 129 to 149 | O=C(Nc1ccc2c(c1)S(=O)(=O)N(c1ccc(C(F)(F)F)cc1)CCO2)c1ncoc1C(F)(F)F [Compound 2494] |
| 30 to 100 | 150 to 200 | CC(C)c1oncc1C(=O)Nc1ccc2c(c1)S(=O)(=O)N(c1ccc(C(F)(F)F)cc1)CCO2 [Compound 2202] |
| 30 to 100 | 150 to 200 | Cc1ncc(C(=O)Nc2ccc3c(c2)S(=O)(=O)N(c2ccc(C(F)(F)F)cc2)CCO3)c(C)n1 [Compound 2236] |
| 20 to 30 | 129 to 149 | CC(C)n1cnc(C(=O)Nc2ccc3c(c2)S(=O)(=O)N(c2ccc(C(F)(F)F)cc2)CCO3)n1 [Compound 2258] |
| < 20 | 150 to 200 | CCn1cncc1C(=O)Nc1ccc2c(c1)S(=O)(=O)N(c1ccc(C(F)(F)F)cc1)CCO2 [Compound 2213] |
| 20 to 30 | 129 to 149 | Cc1ccc(C(=O)Nc2ccc3c(c2)S(=O)(=O)N(c2ccc(C(F)(F)F)cc2)CCO3)cn1 [Compound 2174] |
| < 20 | 150 to 200 | O=C(Nc1ccc2c(c1)S(=O)(=O)N(c1ccc(C(F)(F)F)cc1)CCO2)c1cccc(CO)n1 [Compound 2291] |
| 30 to 100 | 150 to 200 | O=C(Nc1ccc2c(c1)S(=O)(=O)N(c1ccc(C(F)(F)F)cc1)CCO2)c1cccnn1 [Compound 2224] |
| 30 to 100 | 150 to 200 | Cc1cc(C(=O)Nc2ccc3c(c2)S(=O)(=O)N(c2ccc(C(F)(F)F)cc2)CCO3)cc(C)n1 [Compound 2510] |
| 30 to 100 | 150 to 200 | Cc1ncnc(C)c1C(=O)Nc1ccc2c(c1)S(=O)(=O)N(c1ccc(C(F)(F)F)cc1)CCO2 [Compound 2337] |
| < 20 | 129 to 149 | Cn1cc(C(=O)Nc2ccc3c(c2)S(=O)(=O)N(c2ccc(C(F)(F)F)cc2)CCO3)c2cccnc21 [Compound 2451] |
| 30 to 100 | > 200 | O=C(Nc1ccc2c(c1)S(=O)(=O)N(c1ccc(C(F)(F)F)cc1)CCO2)c1ccnc(CO)c1 [Compound 2290] |
| 30 to 100 | 150 to 200 | O=C(Nc1ccc2c(c1)S(=O)(=O)N(c1ccc(C(F)(F)F)cc1)CCO2)c1cocn1 [Compound 1976, N-(1,1-Dioxido-2-(4-(Trifluoromethyl)Phenyl)-3,4-Dihydro-2H-Benzo[b][1,4,5]Oxathiazepin-8-yl)Oxazole-4-Carboxamide] |
| < 20 | 129 to 149 | CCn1nccc1C(=O)Nc1ccc2c(c1)S(=O)(=O)N(c1ccc(C(F)(F)F)cc1)CCO2 [Compound 2254] |
| 30 to 100 | 150 to 200 | Cc1ncoc1C(=O)Nc1ccc2c(c1)S(=O)(=O)N(c1ccc(C(F)(F)F)nc1)CCO2 [Compound 2388] |
| < 20 | 150 to 200 | Cc1ncsc1C(=O)Nc1ccc2c(c1)S(=O)(=O)N(c1ccc(C(F)(F)F)cc1)CCO2 [Compound 2058, N-(1,1-Dioxido-2-(4-(Trifluoromethyl)Phenyl)-3,4-Dihydro-2H-Benzo[b][1,4,5]Oxathiazepin-8-yl)-4-Methylthiazole-5-Carboxamide] |

From US20230218632A1, “CYCLIC SULFONAMIDE DERIVATIVES AS TRAP1 MODULATORS AND USES THEREOF” (Amathus Therapeutics, Inc., priority 2020, published 2023)
